Experiments:
[1] = biological target: Recombinant human MALT-1 (amino acids 340-824) (Homo sapiens (Human), UniProt Q9UDY8); assay: MALT-1 inhibition assay (fluorogenic substrate Ac-LRSR-Rh110-DP); format: biochemical; details: recombinant human MALT-1, substrate Ac-LRSR-Rh110-DP
Outline: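 Reactions were started with fluorogenic substrate Ac-LRSR-Rh110-DP (10 μM final) against 3 nM enzyme and kept dark at 25° C for 60 minutes. IC50 values came from 4-parameter logistic fits of percent inhibition calculated from relative fluorescence units.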

[2] = system: IL-2 secretion by human effector memory T cells (TEM); assay: Effector memory T cells IL-2 release assay; format: cell-based; details: T-cell; human CD4+ effector memory T cells, CD3/CD28 bead stimulation, 24 h; read-out: CD4TC IL2 IC50
Outline: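 Human CD4+ effector memory T cells from healthy-donor buffy coats were stimulated with anti-CD3/CD28 Dynabeads and exposed to 10 semi-log compound doses (0.1% DMSO) for 24 h at 37 °C. Supernatant IL-2 was measured by HTRF, and IC50 came from a 4-parameter logistic fit to maximal IL-2. Viability was checked by flow cytometry.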

Chain of Recombinant human MALT-1 (amino acids 340-824) (Q9UDY8 340-824): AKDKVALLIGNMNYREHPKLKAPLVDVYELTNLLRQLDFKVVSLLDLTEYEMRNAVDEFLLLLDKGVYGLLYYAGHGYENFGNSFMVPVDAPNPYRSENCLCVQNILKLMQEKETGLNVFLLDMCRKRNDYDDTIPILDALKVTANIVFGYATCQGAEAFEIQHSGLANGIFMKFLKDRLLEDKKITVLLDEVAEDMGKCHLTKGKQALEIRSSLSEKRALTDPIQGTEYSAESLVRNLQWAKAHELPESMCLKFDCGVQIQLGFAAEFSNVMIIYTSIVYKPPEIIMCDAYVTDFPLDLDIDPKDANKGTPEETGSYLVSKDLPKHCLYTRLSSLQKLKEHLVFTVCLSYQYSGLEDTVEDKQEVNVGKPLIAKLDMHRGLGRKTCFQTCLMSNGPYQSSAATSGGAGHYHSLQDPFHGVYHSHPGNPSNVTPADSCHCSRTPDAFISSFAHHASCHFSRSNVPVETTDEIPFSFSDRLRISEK

| Structure (SMILES) | IC50 [1] [nM] | IC50 [2] [nM] |
| --- | --- | --- |
| CC(=O)N1CCC(C(=O)N(C)[C@@H](c2ccc(N3CC[C@@H](C)c4c3cnc3cc(Cl)nn43)cc2)C(F)(F)F)CC1 [CPD0074558] | 74 | 67 |
| COc1ccc2ncc(Nc3ccc([C@H](N(C)C(=O)[C@H]4CC[S@](=N)(=O)CC4)C(F)(F)F)cc3)c([C@@H](C)OC)c2n1 [CPD0075563] | 102 | 257 |
| COc1ccc2ncc(Nc3ccc([C@H](N(C)C(=O)[C@H]4CC[S@@](=N)(=O)CC4)C(F)(F)F)cc3)c([C@@H](C)OC)c2n1 [CPD0075564] | 89 | 175 |
| CN(C(=O)[C@@H]1CC(=O)N1)[C@@H](c1ccc(N2CCCc3c2cnc2cc(Cl)nn32)cc1)C(F)(F)F [CPD0075870, (2S)-N-[(1S)-1-[4-(4-chloro-2,3,7,10-tetrazatricyclo[7.4.0.0^2,6]trideca-1(9),3,5,7-tetraen-10-yl)phenyl]-2,2,2-trifluoro-ethyl]-N-methyl-4-oxo-azetidine-2-carboxamide] | 63 | 120 |
